From patent US9573956B2, “Compounds as dual inhibitors of phosphodiesterases and histone deacetylases” (FUNDACIÓN PARA LA INVESTIGACIÓN MÉDICA APLICADA, priority 2013, dated 2017)

Assays:
HDAC1 = HDAC1 (Homo sapiens, UniProt Q13547); test: HDAC enzyme activity assay (fluorogenic substrate), HDAC1; type: biochemical; settings: recombinant enzyme; read-out: HDAC1 inhibition (IC50)
PDE4D7 = PDE4D7 (Homo sapiens, UniProt Q08499); test: PDE enzyme activity assay (HTRF cGMP), PDE4D7; type: biochemical; settings: recombinant enzyme; read-out: PDE4D7 inhibition (IC50)
Description: The biochemical assay to measure PDE5A, PDE9A isoform b, PDE4D7, and PDE4A1 enzyme activities relies on the HTRF cGMP assay kit from CisBio (CisBio, Cat. #62GM2PEB), that determines the amount of cGMP present in the reaction. The enzymes were obtained from BPS Biosciences (GenBank Accession number for PDE5A: NM_001083, Cat. #60050; PDE9A: NM_001001567, Cat. #60090; PDE4D7: NM_001165899, Cat. #60047; and PDE4A1: U97584, Cat. #60040) and they are full-length with N-terminal GST tag. They were expressed in a baculovirus infected Sf9 cell expression system.
For each enzyme, enzyme activity assay was carried out in a 384-well plate in a final volume of 20 μL, as follows: • 2.5 μL of vehicle or studied compound 4× concentrated prepared in assay buffer containing 50 mM Tris-HCl, 6 mM MgCl2, pH 7.4 (PDE5A, PDE4D7, PDE4A1) and additionally 0.03% Tween-20 (PDE9A). Final percentage of DMSO was 0.5%. • 2.5 μL of PDE5A (7 μg/mL) or 2.5 μL PDE9A (0.2 μg/mL) or 2.5 μL PDE4D7 (1.25 μg/mL) or 2.5 μL PDE4A1 (1.5 μg/mL) diluted in assay buffer. […]
Fluorescence of each well was determined at […] using the plate reader EnVision (Perkin-Elmer). Results were calculated from the 665 nm/620 nm ratio. […]

PDE4A1 = target: T1, PDE4A1 (Homo sapiens, UniProt P27815); test: PDE enzyme activity assay (HTRF cGMP), PDE4A1; type: biochemical; settings: recombinant enzyme; read-out: PDE4A1 inhibition (IC50)
T1 construct: they are full-length with N-terminal GST tag; GST (N); purchased BPS Biosciences 60040; host or cells: baculovirus infected Sf9 cells

[1] = system: phosphorylated tau (p-tau); test: AD-related markers in Tg2576 neurons: pTau; type: cell-based; settings: Mus musculus, Neuron, 48 h, treated two days, EC50 = 50% decrease in pTau over basal
pCREB [2] = test: PDE activity in wild type primary neurons (Western blot pCREB); type: cell-based; settings: Mus musculus, Neuron, 0.5 h, 30 min, EC50 = 50% increase in pCREB over basal
[3] = system: acetylated histone 3 at Lys9 (AcH3K9); test: HDAC activity in wild type primary neurons (Western blot AcH3K9); type: cell-based, mouse; settings: 30 min, EC50 = 50% increase in AcH3K9 over basal
pTau = test: AD-related markers in Tg2576 mice after chronic treatment: pTau; type: in vivo, mouse; settings: chronic treatment (3-5 weeks), hippocampal homogenates
Protocol: AD-related markers (APP processing, pTau and acetylated-tubulin) in Tg2576 mice. The effects of the compounds were also analysed in Tg2576 mice after chronic treatment (3-5 weeks) using hippocampal homogenates obtained in a buffer containing SDS (2%) and following the same protocol as described in the in vitro studies.

pCREB [4] = test: In-vivo activity, hippocampus of wild type mice: pCREB; set-up: species or system mouse; settings: i.p. 40 mg/kg, hippocampus one hour later
Protocol: (§1) To determine the ability of the compounds to inhibit HDAC and PDE in the brain, the compound was administered to wild type mice by i.p. at a dose of 40 mg/kg (n=3). Another group of animals received the vehicle (1/1/8, v:v:v, DMSO/Tween 20/saline). One hour later, mice were sacrificed by cervical dislocation and their hippocampus was quickly dissected from the brains.
(§2) Total tissue homogenates were obtained by homogenizing the hippocampus in a cold lysis buffer with protease inhibitors (0.2 M NaCl, 0.1 M HEPES, 10% glycerol, 200 mM NaF, 2 mM Na4P2O7, 5 mM EDTA, 1 mM EGTA, 2 mM DTT, 0.5 mM PMSF, 1 mM Na3VO4 and Complete Protease Inhibitor Cocktail, Roche Diagnostics). The homogenate was then centrifuged at 14,000×g at 4° C. for 20 min and the supernatant aliquoted and stored at −80° C. Total protein concentrations were determined using the BioRad Bradford protein assay (BioRad Laboratories). Protein samples were analyzed as described in the “in vitro” section.

PDE9A isoform b = target: T2, PDE9A isoform b (Homo sapiens, UniProt O76083); test: PDE enzyme activity assay (HTRF cGMP), PDE9A; type: biochemical; settings: recombinant enzyme; read-out: PDE9A inhibition (IC50)
T2 construct: they are full-length with N-terminal GST tag; GST (N); purchased BPS Biosciences 60090; host or cells: baculovirus infected Sf9 cells

AcH3 = test: In-vivo activity, hippocampus of wild type mice: AcH3; set-up: species or system mouse; settings: i.p. 40 mg/kg, hippocampus one hour later
Protocol: as §1, §2

Sequence of HDAC1 (Q13547 whole entry): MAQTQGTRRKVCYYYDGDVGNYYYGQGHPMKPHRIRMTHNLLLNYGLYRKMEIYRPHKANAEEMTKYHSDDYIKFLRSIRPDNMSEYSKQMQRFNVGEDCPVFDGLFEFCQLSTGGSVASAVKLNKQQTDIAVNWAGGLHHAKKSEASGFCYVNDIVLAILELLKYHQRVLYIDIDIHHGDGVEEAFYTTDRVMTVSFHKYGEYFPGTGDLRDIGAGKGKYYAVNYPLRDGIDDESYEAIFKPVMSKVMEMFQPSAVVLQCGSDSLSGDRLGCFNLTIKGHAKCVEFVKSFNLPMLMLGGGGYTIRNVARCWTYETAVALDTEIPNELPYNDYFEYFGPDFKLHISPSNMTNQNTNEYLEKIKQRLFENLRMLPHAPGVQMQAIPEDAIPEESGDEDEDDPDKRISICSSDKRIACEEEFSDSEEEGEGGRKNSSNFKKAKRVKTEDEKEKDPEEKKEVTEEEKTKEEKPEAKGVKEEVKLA
T2 sequence (O76083 1-533 isoform O76083-2): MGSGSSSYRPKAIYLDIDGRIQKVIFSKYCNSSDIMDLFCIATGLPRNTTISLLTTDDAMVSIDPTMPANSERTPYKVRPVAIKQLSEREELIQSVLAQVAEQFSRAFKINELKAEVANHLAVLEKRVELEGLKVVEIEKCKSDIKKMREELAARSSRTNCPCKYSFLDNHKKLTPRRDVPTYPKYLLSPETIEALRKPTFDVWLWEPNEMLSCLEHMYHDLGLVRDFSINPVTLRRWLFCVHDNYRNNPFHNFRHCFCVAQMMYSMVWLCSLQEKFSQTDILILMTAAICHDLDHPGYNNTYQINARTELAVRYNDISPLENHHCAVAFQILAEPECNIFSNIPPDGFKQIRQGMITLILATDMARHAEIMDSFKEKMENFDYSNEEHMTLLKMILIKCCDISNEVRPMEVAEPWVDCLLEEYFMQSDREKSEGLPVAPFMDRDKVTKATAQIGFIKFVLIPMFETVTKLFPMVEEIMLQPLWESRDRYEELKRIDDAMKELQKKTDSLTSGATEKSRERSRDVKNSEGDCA
T1 sequence (P27815 1-647 isoform P27815-4): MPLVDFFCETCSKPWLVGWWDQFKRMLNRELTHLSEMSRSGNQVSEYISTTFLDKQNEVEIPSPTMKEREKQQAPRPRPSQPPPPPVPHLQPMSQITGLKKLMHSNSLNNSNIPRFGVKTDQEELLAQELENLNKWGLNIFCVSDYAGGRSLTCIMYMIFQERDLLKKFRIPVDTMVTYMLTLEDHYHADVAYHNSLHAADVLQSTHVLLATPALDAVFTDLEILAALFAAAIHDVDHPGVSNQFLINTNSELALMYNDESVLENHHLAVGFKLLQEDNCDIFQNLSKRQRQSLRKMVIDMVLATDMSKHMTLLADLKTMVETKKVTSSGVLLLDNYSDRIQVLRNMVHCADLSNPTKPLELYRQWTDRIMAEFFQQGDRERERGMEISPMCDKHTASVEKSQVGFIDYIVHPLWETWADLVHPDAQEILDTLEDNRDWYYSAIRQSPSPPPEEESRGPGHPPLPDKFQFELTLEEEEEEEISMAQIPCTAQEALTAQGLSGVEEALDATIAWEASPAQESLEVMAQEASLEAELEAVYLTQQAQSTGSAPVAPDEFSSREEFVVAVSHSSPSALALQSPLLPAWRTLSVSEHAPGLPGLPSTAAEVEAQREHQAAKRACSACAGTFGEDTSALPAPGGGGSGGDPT
Sequence of PDE4D7 (Q08499 1-748 isoform Q08499-11): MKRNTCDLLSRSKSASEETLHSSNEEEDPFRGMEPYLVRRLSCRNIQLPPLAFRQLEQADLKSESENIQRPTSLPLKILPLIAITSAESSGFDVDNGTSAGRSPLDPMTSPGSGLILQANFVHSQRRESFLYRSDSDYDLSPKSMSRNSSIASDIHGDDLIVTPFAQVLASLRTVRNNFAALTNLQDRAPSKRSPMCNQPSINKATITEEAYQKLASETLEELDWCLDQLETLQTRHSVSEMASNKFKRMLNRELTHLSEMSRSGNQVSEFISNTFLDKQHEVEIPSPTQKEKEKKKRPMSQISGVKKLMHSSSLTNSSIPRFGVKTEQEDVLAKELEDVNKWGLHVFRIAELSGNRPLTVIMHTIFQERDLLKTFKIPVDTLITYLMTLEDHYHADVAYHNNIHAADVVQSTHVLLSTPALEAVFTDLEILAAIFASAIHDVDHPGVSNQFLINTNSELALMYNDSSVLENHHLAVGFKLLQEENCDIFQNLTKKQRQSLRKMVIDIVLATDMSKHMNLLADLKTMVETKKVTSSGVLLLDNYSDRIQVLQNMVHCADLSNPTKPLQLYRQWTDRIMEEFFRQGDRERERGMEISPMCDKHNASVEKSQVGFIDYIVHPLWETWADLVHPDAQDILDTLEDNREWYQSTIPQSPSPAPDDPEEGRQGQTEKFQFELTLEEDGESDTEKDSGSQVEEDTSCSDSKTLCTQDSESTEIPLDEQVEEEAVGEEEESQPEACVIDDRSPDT

**Q.** For `COc1ccc(N(CCCCCCC(=O)NO)C(=O)c2c(Cl)cncc2Cl)cc1OC1CCCC1` [Example 5-05, 7-(N-[3,5-Dichloropyridin-4-ylcarbonyl]-N-[(3-(cyclopentyloxy)-4-methoxyphenyl)]amino)-N-hydroxyheptanamide], which IC50 (HDAC1) is on record?
**A.** The IC50 was 10 to 1000 nM.

**Q.** What about the IC50 (PDE4D7) of the same molecule?
**A.** The IC50 was > 10000 nM.

**Q.** And the IC50 (PDE4A1)?
**A.** Its IC50 is 1000 to 10000 nM.

**Q.** Which results are given for `CN1CC(=O)N2[C@H](c3ccc4c(c3)OCO4)c3[nH]c4ccccc4c3C[C@@H]2C1=O` [Tadalafil, reference compound]?
**A.** EC50 [1]: 10 to 1000 nM; EC50 (pCREB [2]): 10 to 1000 nM; IC50 (HDAC1): > 10000 nM; AcH3 (EC50) [3]: N.E.; pTau, increment in biological response vs basal (pTau): +++ (basal×2≦(+++)<basal×3); pCREB, increment in biological response vs basal (pCREB [4]): +++ (basal×2≦(+++)<basal×3); IC50 (PDE9A isoform b): > 10000 nM; AcH3, increment in biological response vs basal (AcH3): N.E. (N.E. means No Effect)
